Results as given in ChEMBL document CHEMBL5113528 (J Med Chem, 2022).
pIC50, pKd: −log10 of the molar value.

Key:
[1] = molecular target: T1, N-terminal Xaa-Pro-Lys N-methyltransferase 1 (Homo sapiens, UniProt Q9BV86); assay: Inhibition of full length NTMT1 (1 to 222 residues) (unknown origin) expressed in Escherichia coli BL21 (DE3) using GPKRIA as substrate preincubated for 10 mins followed by substrate addition measured after 15 mins by microplate reader method
T1 sequence (Q9BV86 whole entry): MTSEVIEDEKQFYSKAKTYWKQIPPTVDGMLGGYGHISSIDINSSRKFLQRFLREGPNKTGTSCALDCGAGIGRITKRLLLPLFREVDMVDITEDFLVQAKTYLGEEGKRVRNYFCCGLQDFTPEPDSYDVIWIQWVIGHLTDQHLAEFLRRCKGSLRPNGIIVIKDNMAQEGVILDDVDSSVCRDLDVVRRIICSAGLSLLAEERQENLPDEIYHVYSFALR

[2] = molecular target: T1, N-terminal Xaa-Pro-Lys N-methyltransferase 1
Description: Binding affinity to NTMT1 (unknown origin) assessed as dissociation constant in presence of SAM by isothermal titration calorimetry analysis

[3] = molecular target: T1, N-terminal Xaa-Pro-Lys N-methyltransferase 1; remark: listed apart in the source
Description: Binding affinity to NTMT1 (unknown origin)assessed as dissociation constant in absence of SAM by isothermal titration calorimetry analysis

[4] = molecular target: T1, N-terminal Xaa-Pro-Lys N-methyltransferase 1; assay: Inhibition of full length His-NTMT1 (1 to 222 residues) (unknown origin) expressed in Escherichia coli BL21 (DE3) assessed as SAH production by Mtase-glo luminescence assay

With `CC(C)(NC(=O)OC1CCCCC1)c1csc(-c2ccc(F)cc2)n1` the pIC50 [1] was under 4.00.
`CC(C)(NC(=O)O[C@@H]1CN2CCC1CC2)c1csc(-c2ccc(Br)cc2)n1` gave a pIC50 [1] of 5.82.
With `CC(C)(NC(=O)O[C@@H]1CN2CCC1CC2)c1csc(-c2ccc(F)cc2)n1` the pKd [2] was 7.49 and the pKd [3] was 6.80.
Compound `CC(C)OC(=O)NC(C)(C)c1csc(-c2ccc(F)cc2)n1` has a pIC50 [1] of under 4.00.
`Cc1nc(C(C)(C)NC(=O)O[C@@H]2CN3CCC2CC3)cs1` was tested, and the pIC50 [1] was under 4.00.
Work on `C/N=c1\nc(-c2ccccc2)n(-c2ccccc2)s1` yielded a pIC50 [4] of 6.34.
`Cc1ccc(-c2nc(C(C)(C)NC(=O)O[C@@H]3CN4CCC3CC4)cs2)cc1` was tested, and the pIC50 [1] was 5.77.
With `CC(C)(NC(=O)O[C@@H]1CN2CCC1CC2)c1csc(-c2ccc(/C=C/C(=O)O)cc2)n1` the pIC50 [1] was under 4.00.
Work on `CC(C)(NC(=O)O[C@@H]1CN2CCC1CC2)c1csc(-c2ccccc2)n1` yielded a pIC50 [1] of 5.57.
`CC(C)(NC(=O)O[C@@H]1CN2CCC1CC2)c1csc(-c2ccc(CCC(=O)O)cc2)n1` gave a pIC50 [1] of under 4.00.
